Results as given in patent US11447517B2, “Galactoside inhibitor of galectins” (GALECTO BIOTECH AB, priority 2018, dated 2022).

target: galectin-3 (Homo sapiens (Human), UniProt P17931); test: Fluorescence anisotropy assay, inhibition of galectin / fluorescein tagged saccharide probe interaction; type: binding
Method: Evaluation of Kd Values The affinity of Example 1-71 for galectins were determined by a fluorescence anisotropy assay where the compound was used as an inhibitor of the interaction between galectin and a fluorescein tagged saccharide probe as described Sörme, P., Kahl-Knutsson, B., Huflejt, M., Nilsson, U. J., and Leffler H. (2004) Fluorescence polarization as an analytical tool to evaluate galectin-ligand interactions. Anal. Biochem. 334: 36-47, (Sörme et al., 2004) and Monovalent interactions of Galectin-1 By Salomonsson, Emma; Larumbe, Amaia; Tejler, Johan; Tullberg, Erik; Rydberg, Hanna; Sundin, Anders; Khabut, Areej; Frejd, Torbjorn; Lobsanov, Yuri D.; Rini, James M.; et al, From Biochemistry (2010), 49(44), 9518-9532, (Salomonsson et al., 2010). […] 100 nM albumin was included as a carrier to prevent protein loss at such low concentration of galectin.

Sequence of galectin-3 (P17931 whole entry): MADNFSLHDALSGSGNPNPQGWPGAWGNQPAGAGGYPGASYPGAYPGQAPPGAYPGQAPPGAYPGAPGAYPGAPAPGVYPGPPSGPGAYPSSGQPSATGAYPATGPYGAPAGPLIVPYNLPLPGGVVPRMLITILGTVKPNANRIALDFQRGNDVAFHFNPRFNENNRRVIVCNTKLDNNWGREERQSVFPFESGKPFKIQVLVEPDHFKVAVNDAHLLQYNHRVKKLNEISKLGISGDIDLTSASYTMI

Row | SMILES | Kd
1 | CO[C@@H]1[C@@H](n2cc(-c3cc(F)c(Cl)c(F)c3)nn2)[C@@H](O)[C@@H](CO)O[C@@H]1Sc1cncc(Cl)c1 [Example 33, 5-Chloropyridin-3-yl 3-[4-(4-chloro-3,5-difluorophenyl)-1H-1,2,3-triazol-1-yl]-3-deoxy-2-O-methyl-1-thio-α-D-galactopyranoside] | 31 nM
2 | CO[C@@H]1[C@@H](n2cc(-c3ccc(Cl)c(F)c3)nn2)[C@@H](O)[C@@H](CO)O[C@@H]1Sc1cncc(Cl)c1 [Example 37, 5-Chloropyridin-3-yl 3-[4-(4-chloro-3-fluorophenyl)-1H-1,2,3-triazol-1-yl]-3-deoxy-2-O-methyl-1-thio-α-D-galactopyranoside] | 42 nM
3 | CO[C@@H]1[C@@H](n2cc(-c3ccc(Cl)c(F)c3)nn2)[C@@H](O)[C@@H](CO)O[C@@H]1Sc1cncc(Br)c1 [Example 38, 5-Bromopyridin-3-yl 3-[4-(4-chloro-3-fluorophenyl)-1H-1,2,3-triazol-1-yl]-3-deoxy-2-O-methyl-1-thio-α-D-galactopyranoside] | 62 nM
4 | CO[C@@H]1[C@@H](n2cc(-c3cc(F)c(Cl)c(F)c3)nn2)[C@@H](O)[C@@H](CO)O[C@@H]1Sc1cc(Cl)ccc1C(=O)N1CCC1 [Example 40, 2-(N-azetidinyl-carbonyl)-5-chlorophenyl 3-[4-(4-chloro-3,5-difluorophenyl)-1H-1,2,3-triazol-1-yl]-3-deoxy-2-O-methyl-1-thio-α-D-galactopyranoside] | 15 nM
5 | CO[C@@H]1[C@@H](n2cc(-c3ccc(C)c(F)c3)nn2)[C@@H](O)[C@@H](CO)O[C@@H]1Sc1cc(Cl)ccc1C(=O)N1CCC1 [Example 41, 2-(N-azetidinyl-carbonyl)-5-chlorophenyl 3-deoxy-3-[4-(3-fluoro-4-methylphenyl)-1H-1,2,3-triazol-1-yl]-2-O-methyl-1-thio-α-D-galactopyranoside] | 7 nM
6 | CO[C@@H]1[C@@H](n2cc(-c3cc(F)c(Cl)c(F)c3)nn2)[C@@H](O)[C@@H](CO)O[C@@H]1Sc1cc(Cl)cnc1C#N [Example 47, 5-Chloro-2-cyanopyridin-3-yl 3-[4-(4-chloro-3,5-difluorophenyl)-1H-1,2,3-triazol-1-yl]-3-deoxy-2-O-methyl-1-thio-α-D-galactopyranoside] | 34 nM
7 | CO[C@@H]1[C@@H](n2cc(-c3cc(F)c(Cl)c(F)c3)nn2)[C@@H](O)[C@@H](CO)O[C@@H]1Sc1cc(C)cnc1C#N [Example 49, 2-Cyano-5-methylpyridin-3-yl 3-[4-(4-chloro-3,5-difluorophenyl)-1H-1,2,3-triazol-1-yl]-3-deoxy-2-O-methyl-1-thio-α-D-galactopyranoside] | 50 nM
8 | C#Cc1cncc(S[C@H]2O[C@H](CO)[C@H](O)[C@H](n3cc(-c4cc(F)c(Cl)c(F)c4)nn3)[C@H]2OC)c1 [Example 54, 5-Ethynylpyridin-3-yl 3-[4-(4-chloro-3,5-difluorophenyl)-1H-1,2,3-triazol-1-yl]-3-deoxy-2-O-methyl-1-thio-α-D-galactopyranoside] | 35 nM
9 | CO[C@@H]1[C@@H](n2cc(-c3ccc(Cl)c(F)n3)nn2)[C@@H](O)[C@@H](CO)O[C@@H]1Sc1cc(Cl)cnc1C#N [Example 55, 5-Chloro-2-cyanopyridin-3-yl 3-[4-(5-chloro-6-fluoropyridin-2-yl)-1H-1,2,3-triazol-1-yl]-3-deoxy-2-O-methyl-1-thio-α-D-galactopyranoside] | 350 nM
10 | CO[C@@H]1[C@@H](n2cc(-c3cc(F)c(F)c(F)c3)nn2)[C@@H](O)[C@@H](CO)O[C@@H]1Sc1cncc(C#N)c1 [Example 59, 5-Cyanopyridin-3-yl 3-deoxy-3-[4-(3,4,5-trifluorophenyl)-1H-1,2,3-triazol-1-yl]-2-O-methyl-1-thio-α-D-galactopyranoside] | 76 nM
11 | CO[C@@H]1[C@@H](n2cc(-c3cc(F)c(Cl)c(F)c3)nn2)[C@@H](O)[C@@H](CO)O[C@@H]1Sc1cncc(C#N)c1 [Example 60, 5-Cyanopyridin-3-yl 3-[4-(4-chloro-3,5-difluorophenyl)-1H-1,2,3-triazol-1-yl]-3-deoxy-2-O-methyl-1-thio-α-D-galactopyranoside] | 80 nM

The remaining compounds from weak to strong by Kd, led by results:

Row | Kd | SMILES
12 | 880 nM | CO[C@@H]1[C@@H](n2cc(-c3ccc(Cl)c(C)n3)nn2)[C@@H](O)[C@@H](CO)O[C@@H]1Sc1cncc(Cl)c1 [Example 44, 5-Chloropyridin-3-yl 3-[4-(5-chloro-6-methylpyridin-2-yl)-1H-1,2,3-triazol-1-yl]-3-deoxy-2-O-methyl-1-thio-α-D-galactopyranoside]
13 | 280 nM | CO[C@@H]1[C@@H](n2cc(-c3cc(F)c(Cl)c(F)c3)nn2)[C@@H](O)[C@@H](CO)O[C@@H]1Sc1cnc(C(F)(F)F)c(C)c1 [Example 39, 6-Trifluoromethyl-5-methylpyridin-3-yl 3-[4-(4-chloro-3,5-difluorophenyl)-1H-1,2,3-triazol-1-yl]-3-deoxy-2-O-methyl-1-thio-α-D-galactopyranoside]
14 | 210 nM | CO[C@@H]1[C@@H](n2cc(-c3cc(F)c(F)c(F)c3)nn2)[C@@H](O)[C@@H](CO)O[C@@H]1Sc1cc(-c2nccs2)cnc1-c1nccs1 [Example 32, 2,5-Bis(thiazol-2-yl)pyridin-3-yl 3-deoxy-3-[4-(3,4,5-trifluorophenyl)-1H-1,2,3-triazol-1-yl]-2-O-methyl-1-thio-α-D-galactopyranoside]
15 | 190 nM | CO[C@@H]1[C@@H](n2cc(-c3cc(F)c(Cl)c(F)c3)nn2)[C@@H](O)[C@@H](CO)O[C@@H]1Sc1cnc(C(F)(F)F)c(C#N)c1 [Example 58, 5-Cyano-6-trifluoromethylpyridin-3-yl 3-[4-(4-chloro-3,5-difluorophenyl)-1H-1,2,3-triazol-1-yl]-3-deoxy-2-O-methyl-1-thio-α-D-galactopyranoside]
16 | 65 nM | CO[C@@H]1[C@@H](n2cc(-c3cc(F)c(F)c(F)c3)nn2)[C@@H](O)[C@@H](CO)O[C@@H]1Sc1cnc(C#N)c(Cl)c1 [Example 45, 3-Chloro-2-cyanopyridin-5-yl 3-deoxy-3-[4-(3,4,5-trifluorophenyl)-1H-1,2,3-triazol-1-yl]-2-O-methyl-1-thio-α-D-galactopyranoside]
17 | 37 nM | CO[C@@H]1[C@@H](n2cc(-c3ccc(Cl)c(F)c3)nn2)[C@@H](O)[C@@H](CO)O[C@@H]1Sc1cc(Br)cnc1C#N [Example 51, 5-Bromo-2-cyanopyridin-3-yl 3-[4-(4-chloro-3-fluorophenyl)-1H-1,2,3-triazol-1-yl]-3-deoxy-2-O-methyl-1-thio-α-D-galactopyranoside]
18 | 35 nM | CO[C@@H]1[C@@H](n2cc(-c3cc(F)c(F)c(F)c3)nn2)[C@@H](O)[C@@H](CO)O[C@@H]1Sc1cc(Cl)cnc1C#N [Example 46, 5-Chloro-2-cyanopyridin-3-yl 3-deoxy-3-[4-(3,4,5-trifluorophenyl)-1H-1,2,3-triazol-1-yl]-2-O-methyl-1-thio-α-D-galactopyranoside]
19 | 35 nM | C#Cc1cnc(C#N)c(S[C@H]2O[C@H](CO)[C@H](O)[C@H](n3cc(-c4cc(F)c(C)c(F)c4)nn3)[C@H]2OC)c1 [Example 57, 2-Cyano-5-ethynylpyridin-3-yl 3-deoxy-3-[4-(3,5-difluoro-4-methylphenyl)-1H-1,2,3-triazol-1-yl]-2-O-methyl-1-thio-α-D-galactopyranoside]
20 | 31 nM | CO[C@@H]1[C@@H](n2cc(-c3ccc(Cl)c(F)c3)nn2)[C@@H](O)[C@@H](CO)O[C@@H]1Sc1cc(Cl)cnc1C#N [Example 48, 5-Chloro-2-cyanopyridin-3-yl 3-[4-(4-chloro-3-fluorophenyl)-1H-1,2,3-triazol-1-yl]-3-deoxy-2-O-methyl-1-thio-α-D-galactopyranoside]
21 | 29 nM | CO[C@@H]1[C@@H](n2cc(-c3cc(F)c(F)c(F)c3)nn2)[C@@H](O)[C@@H](CO)O[C@@H]1Sc1cncc(Cl)c1 [Example 42, 5-Chloropyridin-3-yl 3-deoxy-3-[4-(3,4,5-trifluorophenyl)-1H-1,2,3-triazol-1-yl]-2-O-methyl-1-thio-α-D-galactopyranoside]
22 | 28 nM | C#Cc1cnc(C#N)c(S[C@H]2O[C@H](CO)[C@H](O)[C@H](n3cc(-c4cc(F)c(Cl)c(F)c4)nn3)[C@H]2OC)c1 [Example 56, 2-Cyano-5-ethynylpyridin-3-yl 3-[4-(4-chloro-3,5-difluorophenyl)-1H-1,2,3-triazol-1-yl]-3-deoxy-2-O-methyl-1-thio-α-D-galactopyranoside]
23 | 23 nM | CO[C@@H]1[C@@H](n2cc(-c3cc(F)c(Cl)c(F)c3)nn2)[C@@H](O)[C@@H](CO)O[C@@H]1Sc1cc(Br)cnc1C#N [Example 50, 5-Bromo-2-cyanopyridin-3-yl 3-[4-(4-chloro-3,5-difluorophenyl)-1H-1,2,3-triazol-1-yl]-3-deoxy-2-O-methyl-1-thio-α-D-galactopyranoside]
24 | 21 nM | CO[C@@H]1[C@@H](n2cc(-c3cc(F)c(Cl)c(F)c3)nn2)[C@@H](O)[C@@H](CO)O[C@@H]1Sc1cncc(Br)c1 [Example 34, 5-Bromopyridin-3-yl 3-[4-(4-chloro-3,5-difluorophenyl)-1H-1,2,3-triazol-1-yl]-3-deoxy-2-O-methyl-1-thio-α-D-galactopyranoside]
25 | 16 nM | CO[C@@H]1[C@@H](n2cc(-c3cc(F)c(F)c(F)c3)nn2)[C@@H](O)[C@@H](CO)O[C@@H]1Sc1cc(Br)ccc1C(=O)N1CCC1 [Example 64, 2-(N-azetidinyl-carbonyl)-5-bromophenyl 3-deoxy-3-[4-(3,4,5-trifluorophenyl)-1H-1,2,3-triazol-1-yl]-2-O-methyl-1-thio-α-D-galactopyranoside]
